Source: ChEMBL document CHEMBL1131026, “D-amino acid containing, high-affinity inhibitors of recombinant human calpain I” (J Med Chem, 1998)
Square brackets hold non-standard residues; d marks the D form. Peptide text beside a SMILES is read from it. * marks the point of attachment. d(hPhe) = N[C@H](CCc1ccccc1)C(=O)O; d2Thi = N[C@H](Cc1cccs1)C(=O)O; dPhg = N[C@@H](C(=O)O)c1ccccc1; Abu = CC[C@H](N)C(=O)O; Bn = c1ccc(C*)cc1; Ms = CS(=O)(=O)*

Tests used:
[1] = target: T1, Calpain-1 catalytic subunit (Homo sapiens, UniProt P07384); assay: Inhibitory activity against recombinant human Calpain-I receptor
T1 sequence (P07384 whole entry): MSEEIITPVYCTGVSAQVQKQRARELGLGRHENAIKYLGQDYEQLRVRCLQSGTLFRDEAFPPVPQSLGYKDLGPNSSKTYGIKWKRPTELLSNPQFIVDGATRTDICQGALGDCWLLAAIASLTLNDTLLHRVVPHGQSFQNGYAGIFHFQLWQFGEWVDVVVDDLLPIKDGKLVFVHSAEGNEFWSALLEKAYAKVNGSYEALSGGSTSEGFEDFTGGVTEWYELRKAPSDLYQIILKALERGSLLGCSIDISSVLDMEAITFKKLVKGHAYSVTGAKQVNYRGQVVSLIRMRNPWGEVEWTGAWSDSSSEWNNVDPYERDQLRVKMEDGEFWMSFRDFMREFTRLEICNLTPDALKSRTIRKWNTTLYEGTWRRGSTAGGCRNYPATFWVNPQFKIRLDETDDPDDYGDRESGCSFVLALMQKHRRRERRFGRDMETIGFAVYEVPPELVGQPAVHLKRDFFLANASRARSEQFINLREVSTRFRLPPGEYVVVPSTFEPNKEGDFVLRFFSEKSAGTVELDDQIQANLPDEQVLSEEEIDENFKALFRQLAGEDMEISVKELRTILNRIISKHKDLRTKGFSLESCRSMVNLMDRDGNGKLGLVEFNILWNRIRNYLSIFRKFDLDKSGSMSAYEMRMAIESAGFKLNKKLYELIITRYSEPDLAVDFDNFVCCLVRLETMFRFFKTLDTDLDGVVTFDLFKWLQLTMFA

Cathepsin B = Cathepsin B (Homo sapiens, UniProt P07858); assay: Inhibitory activity against cathepsin B receptor in human liver
[2] = target: Prothrombin (Homo sapiens) (UniProt P00734); assay: Inhibitory activity against human plasma thrombin at 10 uM; format: cell-free
[3] = target: T1, Calpain-1 catalytic subunit; assay: Inhibition of intracellular Calpain-I receptor using intact cell assay system; format: cell-based
[4] = target: Chymotrypsinogen A (Bos taurus) (UniProt P00766); assay: Inhibitory activity against Bovine pancreas alpha-chymotrypsin at 10 uM

Row | Compound | Ki [1] | Ki (Cathepsin B) | inhibition [2] | IC50 [3] | inhibition [4]
1 | O=C[C@H](Cc1ccccc1)NC(=O)[C@@H](COCc1ccccc1)NS(=O)(=O)c1ccccc1 | 22 nM |  |  |  | 
2 | CS(=O)(=O)N[C@H](COCc1ccccc1)C(=O)N[C@H](C=O)Cc1ccccc1 | 8 nM | 32 nM | 0% | 700 nM | 23%
3 | CCNC(=O)C(=O)[C@H](Cc1ccccc1)NC(=O)[C@@H](COCc1ccccc1)NS(C)(=O)=O | 130 nM |  |  |  | 
4 | CN([C@H](COCc1ccccc1)C(=O)N[C@H](C=O)Cc1ccccc1)S(C)(=O)=O | 370 nM |  |  |  | 
5 | CCS(=O)(=O)N[C@H](COCc1ccccc1)C(=O)N[C@H](C=O)Cc1ccccc1 | 9 nM | 45 nM | 9% | 400 nM | 15%
6 | CS(=O)(=O)N[C@H](COCc1ccccc1)C(=O)N[C@H](C=O)CCCCNS(=O)(=O)c1ccccc1 | 2 nM | 4 nM | 0% | 400 nM | 13%
7 | CC(OCc1ccccc1)[C@@H](NS(C)(=O)=O)C(=O)N[C@H](C=O)Cc1ccccc1 (some centres not stated) | 9 nM | 44 nM | 0% | 500 nM | 3%
8 | O=C[C@H](Cc1ccccc1)NC(=O)[C@@H](COCc1ccccc1)NS(=O)(=O)c1cccs1 | 9 nM |  |  |  | 
9 | CS(=O)(=O)N[C@H](CS(=O)(=O)Cc1ccccc1)C(=O)N[C@H](C=O)Cc1ccccc1 | 11 nM |  |  |  | 
10 | CS(=O)(=O)N[C@H](Cc1cccs1)C(=O)N[C@H](C=O)Cc1ccccc1 (Ms-[d2Thi]-Phe-aldehyde) | 11 nM | 23 nM | 0% | 300 nM | 0%
11 | CS(=O)(=O)N[C@H](CCc1ccccc1)C(=O)N[C@H](C=O)Cc1ccccc1 (Ms-[d(hPhe)]-Phe-aldehyde) | 28 nM |  |  |  | 
12 | CS(=O)(=O)N[C@H](CSCc1ccccc1)C(=O)N[C@H](C=O)Cc1ccccc1 (Ms-[dC](Bn)-Phe-aldehyde) | 6 nM | 41 nM | 7% | 800 nM | 16%
13 | CS(=O)(=O)N[C@H](Cc1ccccc1)C(=O)N[C@H](C=O)Cc1ccccc1 (Ms-[dF]-Phe-aldehyde) | 11 nM | 120 nM | 0% | 600 nM | 12%
14 | CC(C)C[C@@H](NS(C)(=O)=O)C(=O)N[C@H](C=O)Cc1ccccc1 (Ms-[dL]-Phe-aldehyde) | 29 nM |  |  |  | 
15 | CS(=O)(=O)N[C@@H](C(=O)N[C@H](C=O)Cc1ccccc1)c1ccccc1 (Ms-[dPhg]-Phe-aldehyde) | 9 nM |  |  |  | 
16 | CC(C)C[C@@H](C=O)NC(=O)[C@@H](COCc1ccccc1)NS(C)(=O)=O (Ms-[dS](Bn)-Leu-aldehyde) | 66 nM |  |  |  | 
17 | CS(=O)(=O)N[C@H](COCc1ccccc1)C(=O)N[C@H](C=O)Cc1ccc(OCc2ccccc2)cc1 (Ms-[dS](Bn)-Tyr(Bn)-aldehyde) | 4 nM | 45 nM | 0% | 700 nM | 0%
18 | CC[C@@H](C=O)NC(=O)[C@@H](COCc1ccccc1)NS(C)(=O)=O (Ms-[dS](Bn)-[Abu]-aldehyde) | 36 nM |  |  |  | 
19 | CS(=O)(=O)N[C@H](Cc1c[nH]c2ccccc12)C(=O)N[C@H](C=O)Cc1ccccc1 (Ms-[dW]-Phe-aldehyde) | 10 nM |  |  |  | 
20 | CS(=O)(=O)NC(COCc1ccccc1)C(=O)N[C@H](C=O)Cc1ccccc1 (single isomer, unassigned) | 41 nM |  |  |  | 
